Assay results from US20250195549A1, “NEW USE” (Kancera AB, priority 2023, published 2025).

How the values were obtained:
[1] = test system: ST-elevation myocardial infarction (STEMI) patients undergoing percutaneous coronary intervention; test: FRACTAL phase IIa clinical study: left ventricular thrombus and intramyocardial haemorrhage by CMR and/or echocardiogram on day 3; assay type: in vivo, human; conditions: treatment group vs placebo, day 3 of the treatment
Source text: (§1) The FRACTAL (FRACTalkine inhibition in Acute myocardial infarction) study was designed as a phase Iia, randomised, two-arm parallel-group, placebo-controlled, double-blind, multi-centre trial. The trial was primarily intended to assess the safety tolerability of intravenous and oral administration of (2R)-2-[(2-amino-5-{[(1S)-1-phenylethyl]thio}[1,3]thiazolo[4,5-d]pyrimidin-7-yl)amino]-4-methylpentan-1-ol (KAND567) (hydrochloride salt) (′investigational medicinal product (IMP)′; structure below)
in ST-elevation myocardial infarction (STEMI) patients undergoing percutaneous coronary intervention. For this, a cohort of 71 STEMI patients were admitted into two large tertiary centres in the United Kingdom. Secondary endpoints included investigating the anti-inflammatory and cardioprotective effects of the treatment. […]
(§2) The primary outcome of the study was safety, but a number of key secondary outcomes being assessed in parallel. Blood samples at nine different time points were used to assess any changes in the immune compartment as well as in inflammatory markers, and the cardioprotective effects of KAND567, as measured by gadolinium-contrast Cardiac Magnetic Resonance (CMR) (Cardiac MRI), were assessed as an additional secondary end point. […]

[2] = test system: ST-elevation myocardial infarction (STEMI) patients undergoing percutaneous coronary intervention; test: FRACTAL clinical study: infarct size by late gadolinium-enhanced (LGE) MRI at day 90; assay type: in vivo, human; conditions: for Infarct size, GAD5-SD(%): LGE MRI at day 90, average, N in brackets
Description: Every patient received a baseline CMR scan on day 3 post myocardial infarction, followed by a subsequent scan after 3 months. Image analysis was performed by a
Additionally, the size of the myocardial infarction was assessed using late gadolinium-enhanced (LGE) magnetic resonance imaging (MRI) at day 90 to compare infarct size in patients administered the placebo or the IMP, using a thresholding of 5 standard deviations above the mean signal intensity from normal myocardium.
The average infarct size for patients with and without intramyocardial haemorrhage in the placebo and treatment groups is shown in the table below.

[3] = test system: ST-elevation myocardial infarction (STEMI) patients undergoing percutaneous coronary intervention; test: FRACTAL clinical study: safety, tolerability and bleeding; assay type: in vivo, human
Source text: as §1
Following angiography and final confirmation of eligibility, patients were randomised to receive the intravenous (IV) bolus of either investigational medicinal product (IMP) or placebo. To avoid delivery of the IMP after reperfusion of the occluded vessel, percutaneous coronary intervention (PCI) was only commenced following the intravenous bolus of IMP/placebo. Patients then completed the remainder of their IMP infusion over 6 h. […]
as §2

[4] = FRACTAL clinical study: steady state concentration during IV infusion; assay type: in vivo, human; conditions: IV infusion over 6 hours, total dose 134 mg; in the blood
Description: The IMP and placebo (IMP 7.5 mg/mL solution (comprising 7.5 mg/mL IMP, Kleptose HP, sodium chloride and disodium phosphate in water for injection) added to 250 mL sodium chloride 0.9%, placebo solution as IMP solution but without active ingredient) were administered intravenously over a 6 hour period, at the rate summarised in the table below.
• Infusion of the initial bolus dose (approximately 10 mg of the active ingredient) was commenced at least 2 minutes before initiation of PCI. • Reperfusion of the occluded vessel was then initiated by advancing a coronary wire past the occluded or partially occluded site, followed by either balloon angioplasty, thrombectomy or stenting, according to routine clinical care. • IV infusion was then continued over 6 hours with an estimated steady state concentration of 1.5 µM (the rate of infusion was adjusted 3 hours after the start of the bolus dose, to achieve a steady concentration in the blood). The same IV solution was used throughout to give a total dose of 134 mg of the active ingredient over the 6-hour infusion time; placebo solution as IMP solution but without active ingredient). • If required, a bridging peroral dose of 0 to 4 capsules (50 mg capsules of IMP (white, size 1, hard capsules) or matching placebo) was administered depending on timing of presenting at the hospital. […]

[5] = test system: rat myocardial infarction model; conditions: rat model without antiplatelet or anticoagulant co-treatment; cited from earlier work

estimated steady state concentration [4]: 1.5 UM
SMILES: CC(C)C[C@H](CO)Nc1nc(S[C@@H](C)c2ccccc2)nc2nc(N)sc12 [KAND567, (2R)-2-[(2-amino-5-{[(1S)-1-phenylethyl]thio}[1,3]thiazolo[4,5-d]pyrimidin-7-yl)amino]-4-methylpentan-1-ol]
intramyocardial haemorrhage (in words) [1]: significant reduction | left ventricular thrombus (in words) [1]: significant reduction | infarct size compared to the placebo group (in words) ([2]; day 90, beyond the benefit of avoiding intramyocardial hemorrhage): further reduction | Infarct size, GAD5-SD(%) ([2]; patients with intramyocardial hemorrhage, T-test vs placebo p = 0.81): 30.8 (11) % | Infarct size, GAD5-SD(%) ([2]; patients without intramyocardial hemorrhage, T-test vs placebo p = 0.15): 17.8 (16) % | safety and tolerability ([3]; intravenous and oral administration in STEMI patients): safe and well-tolerated | incidence of bleeding ([3]; treatment group vs placebo): no increased incidence of bleeding | infarct size [5]: reduce | inflammation [5]: reduce | intramyocardial haemorrhage [5]: reduce
